ChEMBL document CHEMBL1143863, “N(G)-aminoguanidines from primary amines and the preparation of nitric oxide synthase inhibitors” (J Med Chem, 2008)

Key:
[1] = target: T1, Nitric oxide synthase, inducible (Homo sapiens, UniProt P35228); test: Inhibition of full length iNOS by high-throughput oxymyoglobin assay
[2] = target: T1, Nitric oxide synthase, inducible
[3] = target: T1, Nitric oxide synthase, inducible; test: Binding affinity to truncated iNOS construct (1-490) by spectral assay

T1 sequence (P35228 whole entry): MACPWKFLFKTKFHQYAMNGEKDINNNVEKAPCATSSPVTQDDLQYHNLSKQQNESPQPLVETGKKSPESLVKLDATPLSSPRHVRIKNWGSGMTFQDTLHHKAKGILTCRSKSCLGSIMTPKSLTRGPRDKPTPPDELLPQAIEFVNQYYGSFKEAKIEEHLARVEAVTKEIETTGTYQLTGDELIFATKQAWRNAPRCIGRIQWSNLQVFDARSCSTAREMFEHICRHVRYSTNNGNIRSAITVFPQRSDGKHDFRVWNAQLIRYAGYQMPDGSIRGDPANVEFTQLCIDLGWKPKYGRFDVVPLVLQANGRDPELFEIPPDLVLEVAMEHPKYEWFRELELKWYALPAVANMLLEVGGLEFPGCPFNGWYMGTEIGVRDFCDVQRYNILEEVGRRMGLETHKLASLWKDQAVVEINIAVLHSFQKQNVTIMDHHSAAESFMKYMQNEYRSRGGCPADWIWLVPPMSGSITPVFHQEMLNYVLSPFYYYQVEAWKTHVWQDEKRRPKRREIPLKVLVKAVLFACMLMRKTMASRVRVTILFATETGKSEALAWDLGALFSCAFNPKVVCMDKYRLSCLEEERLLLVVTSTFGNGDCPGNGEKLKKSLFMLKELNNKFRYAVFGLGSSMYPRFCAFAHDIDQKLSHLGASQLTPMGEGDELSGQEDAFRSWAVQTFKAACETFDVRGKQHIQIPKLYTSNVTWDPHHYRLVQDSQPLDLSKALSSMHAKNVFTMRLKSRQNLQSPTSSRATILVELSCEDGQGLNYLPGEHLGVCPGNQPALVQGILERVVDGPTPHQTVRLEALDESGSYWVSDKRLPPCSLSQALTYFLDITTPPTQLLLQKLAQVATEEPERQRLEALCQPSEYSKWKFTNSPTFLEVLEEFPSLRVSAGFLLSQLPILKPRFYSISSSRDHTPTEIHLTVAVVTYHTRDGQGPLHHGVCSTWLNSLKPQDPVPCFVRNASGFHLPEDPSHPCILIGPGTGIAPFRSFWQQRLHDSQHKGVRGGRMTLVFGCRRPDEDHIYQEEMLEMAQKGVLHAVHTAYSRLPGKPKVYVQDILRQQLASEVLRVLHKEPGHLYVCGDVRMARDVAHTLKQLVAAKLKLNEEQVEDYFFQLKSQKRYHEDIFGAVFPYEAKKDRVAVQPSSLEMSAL

Ki [1] [µM] | Kd [3] [µM] | SMILES | Kinact [2] [min⁻¹]
34.1 | 10 | CN(N)/C(N)=N\CCC[C@H](N)C(=O)O | 0.39
10.5 | 40.4 | N/C(=N/CCC[C@H](N)C(=O)O)N(N)CC(F)(F)F | 
16.4 | 29 | CN/N=C(\N)NCCC[C@H](N)C(=O)O | 

SMILES | Ki [1] [µM] | Kd [3] [µM] | Kinact [2] [min⁻¹]
N/N=C(\N)NCCC[C@H](N)C(=O)O | 2.2 | 1.3 | 0.18
N=C(N)NCCC[C@H](N)C(=O)O [ARGININE] |  | 7 | 
